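Grown in 96-well plates, cells were treated for 48 hours with each compound at five concentrations. Insufficient inhibition: endpoint recorded as highest concentration tested. Abbreviation: GI50, concentration required for 50% inhibition of growth. Definition used: TGI = concentration required for complete inhibition of growth.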
Test system: MDA-MB-468 breast
Assay: NCI anticancer screen, dose series, 48 h

SMILES	GI50	TGI
O=C(Nc1ccc(-c2nc3ccc(NC(=O)c4ccc(Cl)cc4)cc3[nH]2)cc1)c1ccc(Cl)cc1	2.58 µM	8.45 µM
COc1ccccc1OCC(O)CO (stereo not drawn)	> 100 µM	> 100 µM
CCc1ccc(/C=C2/SC(=S)NC2=O)cc1	20.3 µM	69.4 µM
COc1cc(C(=O)c2c(-c3ccccc3)oc3ccccc23)cc(OC)c1O	0.362 µM	3.48 µM
Fc1ccc(-c2c(-c3ccncc3)n(CCN3CCOCC3)c3cccnc23)cc1	> 25 µM	> 25 µM
NC(=O)c1ccc(-c2c3ccccc3cc3c2ccc2ccccc23)cc1	1.34 µM	6.97 µM
Brc1ccc2[nH]cc(-c3nc(-c4c[nH]c5ccncc45)cs3)c2c1	1.77 µM	3.45 µM
CN1C=CN(Cc2ccc(-c3ccccn3)nc2)[CH-]1.CN1C=CN(Cc2ccc(-c3ccccn3)nc2)[CH-]1.[Au+3]	0.337 µM	2.53 µM
Fc1cc(Nc2ccc3c(OCCCN4CCOCC4)cccc3n2)ccc1Cl	2.08 µM	4.43 µM
CC(C)=CCC[C@](C)(O)[C@H]1CC[C@]2(C)[C@@H]1CC[C@@H]1[C@@]3(C)CC[C@H](OC(=O)CCC(=O)O)C(C)(C)[C@@H]3CC[C@]12C	22.3 µM	96.1 µM
CCNC1=CC(=O)c2ncccc2C1=O	2.11 µM	7.55 µM
COc1cc(SC)ccc1C(=O)N1CCCC(C)C1 (stereo not drawn)	26.1 µM	> 100 µM
NC(=NC1C2CC3CC(C2)CC1C3)Nc1ccc(I)cc1 (stereo not drawn)	1.96 µM	4.68 µM
Cc1ccc(Nc2ccnc(Nc3cccc(C(N)=O)c3)n2)cc1O	2.62 µM	9.56 µM
O=C(/C=C/c1cccs1)Nc1ncc(Cc2ccccc2F)s1	0.364 µM	> 100 µM
COCCn1cc(-c2csc(-c3c[nH]c4ccc(F)cc34)n2)c2cccnc21	2.44 µM	8.51 µM
Cc1cc(C#Cc2ccccc2)ccc1-n1c(/C=C/c2ccc(O)cc2)nc2ccccc2c1=O	3.78 µM	> 100 µM
CCN(CC)c1ccc(/C=N\NC(=O)c2cccc(Nc3ccnc(C(F)(F)F)c3)c2)c(O)c1	0.239 µM	3.51 µM
COc1cc(Nc2ncc(-c3ccccc3)o2)cc(OC)c1OC	0.0744 µM	1.1 µM
COc1cc([N+](=O)[O-])c2ncccc2c1O	35.6 µM	> 100 µM
O=C(O)c1c(Cl)c(Cl)c(Cl)c(Cl)c1-c1c2cc(I)c(=O)c(I)c-2oc2c(I)c(O)c(I)cc12	36.9 µM	76.2 µM
C=C(C)[C@@H]1CC[C@]2(C#N)CC[C@]3(C)[C@H](CC[C@@H]4[C@@]5(C)CCCNC(C)(C)[C@@H]5CC[C@]43C)[C@@H]12	1.75 µM	3.21 µM
O=c1c2c(=NCCCN3CCCC3)cc3c(=O)n(CCCN4CCCC4)c(=O)c4c(NCCCN5CCCC5)cc(c(O)n1CCCN1CCCC1)c2c4-3	1.74 µM	4.68 µM
O=C(N/N=C\c1cc(Cl)ccc1O)N/N=C/c1cc(Cl)ccc1O	2.58 µM	> 100 µM
CCOc1ccc(N2C(N)=NC(N)=NC2(C)C)cc1	20.8 µM	> 100 µM
Cn1cc(/C=C2\C(=O)Nc3cccnc32)c2ccccc21	12 µM	> 25 µM
O=C(O)CCN1C(=O)/C(=C/C(Cl)=C/c2ccccc2)SC1=S	1.2 µM	2.98 µM
CCn1cc(C2NC(=O)c3cc(F)ccc3N2)c2cccc(Cl)c21 (stereo not drawn)	0.292 µM	6.13 µM
N#CC(C#N)=C/C=C/c1cccc([N+](=O)[O-])c1	0.767 µM	2.28 µM
